Patent US8304419B2, “Chemical compounds” (priority 2007, dated 2012)
Where a name gives a salt, the structure may show the parent alone.

What follows are compounds tested on HIV wild type (WTRVA) (assay: HeLa cell assay, wild type virus (WTRVA)). Details: Human immunodeficiency virus 1, HeLa, HeLa cell assay; read-out: IC50 against WTRVA.
Assay type: cell-based, HIV-1
Parameters: scale not given here

`CCc1ccc(CNC(=O)c2[nH]c(N)nc2Cl)c(F)c1Oc1cc(Cl)cc(C#N)c1` [Example 251, 2-amino-4-chloro-N-({3-[(3-chloro-5-cyanophenyl)oxy]-4-ethyl-2-fluorophenyl}methyl)-1H-imidazole-5-carboxamide] and `CCc1ccc(CNC(=O)c2[nH]c(C)nc2Cl)c(F)c1Oc1cc(Cl)cc(C#N)c1` [Example 249, 4-chloro-N-({3-[(3-chloro-5-cyanophenyl)oxy]-4-ethyl-2-fluorophenyl}methyl)-2-methyl-1H-imidazole-5-carboxamide] cannot be ordered by IC50: under 10 nM for the first, under 10 nM for the second.

`Cc1cc(C#N)cc(Oc2c(Br)ccc(CNC(=O)c3[nH]c(N)nc3Cl)c2F)c1` [Example 240, 2-amino-N-({4-bromo-3-[(3-cyano-5-methylphenyl)oxy]-2-fluorophenyl}methyl)-4-chloro-1H-imidazole-5-carboxamide trifluoroacetate] and `N#Cc1cc(Cl)cc(Oc2c(Br)ccc(CNC(=O)c3[nH]c(N)nc3Br)c2F)c1` [Example 237, 2-amino-4-bromo-N-({4-bromo-3-[(3-chloro-5-cyanophenyl)oxy]-2-fluorophenyl}methyl)-1H-imidazole-5-carboxamide trifluoroacetate] cannot be ordered by IC50: under 10 nM for the first, under 10 nM for the second.

`CCc1cc(C#N)cc(Oc2c(Cl)ccc(CNC(=O)c3[nH]c(C)nc3Cl)c2F)n1` [Example 274, 4-Chloro-N-({4-chloro-3-[(4-cyano-6-ethyl-2-pyridinyl)oxy]-2-fluorophenyl}methyl)-2-methyl-1H-imidazole-5-carboxamide] and `CNc1nc(Cl)c(C(=O)NCc2ccc(Cl)c(Oc3cc(Cl)cc(C#N)c3)c2F)[nH]1` [Example 363, 4-chloro-N-({4-chloro-3-[(3-chloro-5-cyanophenyl)oxy]-2-fluorophenyl}methyl)-2-(methylamino)-1H-imidazole-5-carboxamide trifluoroacetate] cannot be ordered by IC50: under 10 nM for the first, under 10 nM for the second.

For `Cc1nc(Cl)c(C(=O)NCc2cc(C#N)c(Cl)c(Oc3cc(Cl)cc(C#N)c3)c2F)[nH]1` [Example 304, 4-chloro-N-({4-chloro-3-[(3-chloro-5-cyanophenyl)oxy]-5-cyano-2-fluorophenyl}methyl)-2-methyl-1H-imidazole-5-carboxamide trifluoroacetate], the IC50 was under 10 nM.

Same assay, conditions: Human immunodeficiency virus 1, HeLa, HeLa-CD4-LTR-β-gal cells, wild type virus; read-out: WTRVA activity level

`CS(=O)(=O)c1ccc(C(=O)NCc2ccc(Cl)c(Oc3cc(Cl)cc(C#N)c3)c2F)cc1` [Example 92, N-({4-chloro-3-[(3-chloro-5-cyanophenyl)oxy]-2-fluorophenyl}methyl)-4-(methylsulfonyl)benzamide] and `N#Cc1cc(Cl)cc(Oc2c(Cl)ccc(CNC(=O)c3ccc(S(N)(=O)=O)cc3Cl)c2F)c1` [Example 14, 4-(aminosulfonyl)-2-chloro-N-({4-chloro-3-[(3-chloro-5-cyanophenyl)oxy]-2-fluorophenyl}methyl)benzamide] fall in the same range of IC50: 10 to 1000 nM for the first, 10 to 1000 nM for the second.

First: N#Cc1cc(Cl)cc(Oc2c(Cl)ccc(CNC(=O)c3cc4ccc([N+](=O)[O-])cc4[nH]3)c2F)c1 [Example 31, N-({4-chloro-3-[(3-chloro-5-cyanophenyl)oxy]-2-fluorophenyl}methyl)-6-nitro-1H-indole-2-carboxamide]
Second: N#Cc1cc(Cl)cc(Oc2c(Cl)ccc(CNC(=O)c3cc4cc([N+](=O)[O-])ccc4[nH]3)c2F)c1 [Example 19, N-({4-chloro-3-[(3-chloro-5-cyanophenyl)oxy]-2-fluorophenyl}methyl)-5-nitro-1H-indole-2-carboxamide]
The IC50 of the first is higher: 10 to 1000 nM for the first, under 10 nM for the second.

`Cc1cc(C)c(C(=O)NCc2ccc(Cl)c(Oc3cc(Cl)cc(C#N)c3)c2F)[nH]1` [Example 62, N-({4-chloro-3-[(3-chloro-5-cyanophenyl)oxy]-2-fluorophenyl}methyl)-3,5-dimethyl-1H-pyrrole-2-carboxamide trifluoroacetate] and `Cc1[nH]c(C(=O)NCc2ccc(Cl)c(Oc3cc(Cl)cc(C#N)c3)c2F)c(C)c1C#N` [Example 71, N-({4-chloro-3-[(3-chloro-5-cyanophenyl)oxy]-2-fluorophenyl}methyl)-4-cyano-3,5-dimethyl-1H-pyrrole-2-carboxamide trifluoroacetate] cannot be ordered by IC50: under 10 nM for the first, under 10 nM for the second.

`Cc1c(C(=O)NCc2ccc(Cl)c(Oc3cc(Cl)cc(C#N)c3)c2F)[nH]c2ccccc12` [Example 39, N-({4-chloro-3-[(3-chloro-5-cyanophenyl)oxy]-2-fluorophenyl}methyl)-3-methyl-1H-indole-2-carboxamide] and `N#Cc1cc(Cl)cc(Oc2c(Cl)ccc(CNC(=O)c3[nH]c4ccccc4c3Cl)c2F)c1` [Example 75, 3-chloro-N-({4-chloro-3-[(3-chloro-5-cyanophenyl)oxy]-2-fluorophenyl}methyl)-1H-indole-2-carboxamide trifluoroacetate] cannot be ordered by IC50: under 10 nM for the first, under 10 nM for the second.

First: N#Cc1cc(Cl)cc(Oc2c(Cl)ccc(CNC(=O)c3cc4cc(Cl)ccc4s3)c2F)c1 [Example 51, 5-chloro-N-({4-chloro-3-[(3-chloro-5-cyanophenyl)oxy]-2-fluorophenyl}methyl)-1-benzothiophene-2-carboxamide trifluoroacetate]
Second: Cn1c(C(=O)NCc2ccc(Cl)c(Oc3cc(Cl)cc(C#N)c3)c2F)cc2ccccc21 [Example 45, N-({4-chloro-3-[(3-chloro-5-cyanophenyl)oxy]-2-fluorophenyl}methyl)-1-methyl-1H-indole-2-carboxamide]
The IC50 of the first is higher: over 1000 nM for the first, 10 to 1000 nM for the second. The second is the more potent here.

Compared with `N#Cc1cc(Cl)cc(Oc2c(Cl)ccc(CNC(=O)c3cc4ccc(OCc5ccccc5)cc4[nH]3)c2F)c1` [Example 43, N-({4-chloro-3-[(3-chloro-5-cyanophenyl)oxy]-2-fluorophenyl}methyl)-6-[(phenylmethyl)oxy]-1H-indole-2-carboxamide], `CC(O)CCOc1ccc2[nH]c(C(=O)NCc3ccc(Cl)c(Oc4cc(Cl)cc(C#N)c4)c3F)cc2c1` (centres unmarked) [Example 106, N-({4-chloro-3-[(3-chloro-5-cyanophenyl)oxy]-2-fluorophenyl}methyl)-5-[(3-hydroxybutyl)oxy]-1H-indole-2-carboxamide] is lower in IC50: 10 to 1000 nM for the first, under 10 nM for the second. The second is the more potent here.

`CC(=O)Nc1ccc2[nH]c(C(=O)NCc3ccc(Cl)c(Oc4cc(Cl)cc(C#N)c4)c3F)nc2c1` [Example 125, 5-(acetylamino)-N-({4-chloro-3-[(3-chloro-5-cyanophenyl)oxy]-2-fluorophenyl}methyl)-1H-benzimidazole-2-carboxamide] and `CC(=O)c1ccc2[nH]c(C(=O)NCc3ccc(Cl)c(Oc4cc(Cl)cc(C#N)c4)c3F)cc2c1` [Example 80, 5-acetyl-N-({4-chloro-3-[(3-chloro-5-cyanophenyl)oxy]-2-fluorophenyl}methyl)-1H-indole-2-carboxamide trifluoroacetate] cannot be ordered by IC50: under 10 nM for the first, under 10 nM for the second.

First: N#Cc1cc(Cl)cc(Oc2c(Cl)ccc(CNC(=O)c3cn(C(c4ccccc4)(c4ccccc4)c4ccccc4)cn3)c2F)c1 [Example 83, N-({4-chloro-3-[(3-chloro-5-cyanophenyl)oxy]-2-fluorophenyl}methyl)-1-(triphenylmethyl)-1H-imidazole-4-carboxamide]
Second: N#Cc1cc(Cl)cc(Oc2c(Cl)ccc(CNC(=O)c3ccccn3)c2F)c1 [Example 85, N-({4-chloro-3-[(3-chloro-5-cyanophenyl)oxy]-2-fluorophenyl}methyl)-2]
The IC50 of the first is higher: over 1000 nM for the first, under 10 nM for the second.

Compared with `COc1cccc2[nH]c(C(=O)NCc3ccc(Cl)c(Oc4cc(Cl)cc(C#N)c4)c3F)cc12` [Example 34, N-({4-chloro-3-[(3-chloro-5-cyanophenyl)oxy]-2-fluorophenyl}methyl)-4-(methyloxy)-1H-indole-2-carboxamide], `N#Cc1cc(Cl)cc(Oc2c(Cl)ccc(CNC(=O)c3cc4cccc([N+](=O)[O-])c4[nH]3)c2F)c1` [Example 37, N-({4-chloro-3-[(3-chloro-5-cyanophenyl)oxy]-2-fluorophenyl}methyl)-7-nitro-1H-indole-2-carboxamide] is higher in IC50: under 10 nM for the first, 10 to 1000 nM for the second. The first is the more potent here.

`CC(C)c1nc(Cl)c(C(=O)NCc2ccc(Cl)c(Oc3cc(Cl)cc(C#N)c3)c2F)[nH]1` [Example 135, 4-chloro-N-({4-chloro-3-[(3-chloro-5-cyanophenyl)oxy]-2-fluorophenyl}methyl)-2-(1-methylethyl)-1H-imidazole-5-carboxamide trifluoroacetate] and `CCc1nc(Cl)c(C(=O)NCc2ccc(Cl)c(Oc3cc(Cl)cc(C#N)c3)c2F)[nH]1` [Example 77, 4-chloro-N-({4-chloro-3-[(3-chloro-5-cyanophenyl)oxy]-2-fluorophenyl}methyl)-2-ethyl-1H-imidazole-5-carboxamide trifluoroacetate] cannot be ordered by IC50: under 10 nM for the first, under 10 nM for the second.

`N#Cc1cc(Cl)cc(Oc2c(Cl)ccc(CNC(=O)c3cc4cc(OCC[C@H](O)CO)ccc4[nH]3)c2F)c1` [Example 107, N-({4-chloro-3-[(3-chloro-5-cyanophenyl)oxy]-2-fluorophenyl}methyl)-5-{[(3S)-3,4-dihydroxybutyl]oxy}-1H-indole-2-carboxamide] and `N#Cc1cc(Cl)cc(Oc2c(Cl)ccc(CNC(=O)c3cc4cc(NC(=O)c5ccncc5)ccc4[nH]3)c2F)c1` [Example 114, N-({4-chloro-3-[(3-chloro-5-cyanophenyl)oxy]-2-fluorophenyl}methyl)-5-[(4-pyridinylcarbonyl)amino]-1H-indole-2-carboxamide] cannot be ordered by IC50: under 10 nM for the first, under 10 nM for the second.

First: COc1n[n+]([O-])cc2cc(C(=O)NCc3ccc(Cl)c(Oc4cc(Cl)cc(C#N)c4)c3F)[nH]c12 [Example 82, N-({4-chloro-3-[(3-chloro-5-cyanophenyl)oxy]-2-fluorophenyl}methyl)-7-(methyloxy)-1H-pyrrolo[2,3-d]pyridazine-2-carboxamide 5-oxide trifluoroacetate]
Second: N#Cc1cc(Cl)cc(Oc2c(Cl)ccc(CNC(=O)c3c[nH]cn3)c2F)c1 [Example 84, N-({4-chloro-3-[(3-chloro-5-cyanophenyl)oxy]-2-fluorophenyl}methyl)-1H-imidazole-4-carboxamide trifluoroacetate]
The IC50 of the first is higher: 10 to 1000 nM for the first, under 10 nM for the second.

With `N#Cc1cc(Cl)cc(Oc2c(Cl)ccc(CNC(=O)c3n[nH]c([N+](=O)[O-])c3Br)c2F)c1` [Example 69, 4-bromo-N-({4-chloro-3-[(3-chloro-5-cyanophenyl)oxy]-2-fluorophenyl}methyl)-5-nitro-1H-pyrazole-3-carboxamide trifluoroacetate] the IC50 was 10 to 1000 nM.
